Measured values as given in ChEMBL document CHEMBL3885861, “Open TG-GATES”.

Species: Rattus norvegicus
Test: Open TG-GATES - Regimen: Daily Repeat
Type: toxicity, organism-based, Sprague-Dawley
Design: regimen Daily Repeat, gender Male, age 6 weeks
Conditions: in vivo, po, route gavage; for APTT / Bas / Eos / Fbg / Hb / Ht / Lym / MCH / MCHC / MCV / Mono / Neu / Plat / RBC / Ret / WBC: tissue Blood; for KIDNEY_L / KIDNEY_R / KIDNEY_TOTAL: tissue Kidney; for ALP / ALT / AST / BUN / CRE / DBIL / GLC / IP / K / LDH / Na / PL / RALB / TBIL / TC / TG / TP / gamma-GTP: tissue Plasma
[1] = 30 mg/kg, 72 h, dose level Middle, time 3 day
[2] = 30 mg/kg, […], dose level Middle, time 7 day
[3] = 30 mg/kg, […], dose level Middle, time 14 day
[4] = 30 mg/kg, […], dose level Middle, time 28 day
[5] = 100 mg/kg, 72 h, dose level High, time 3 day
[6] = 100 mg/kg, […], dose level High, time 7 day
[7] = 100 mg/kg, […], dose level High, time 14 day
[8] = 100 mg/kg, […], dose level High, time 28 day

CN(C)CCC=C1c2ccccc2COc2ccccc21 [DOXEPIN]
TERMINAL_BW [1]: 221 g | APTT [1]: 16.8 s | Bas [1]: 0% | Eos [1]: 0.8% | Fbg [1]: 336.2 mg/dL | Hb [1]: 13 g/dL | Ht [1]: 37.8% | Lym [1]: 73.4% | MCH [1]: 21.6 pg | MCHC [1]: 34.4% | MCV [1]: 62.9 fL | Mono [1]: 2.8% | Neu [1]: 22.6% | Plat [1]: 113.6 x10_4/uL | RBC [1]: 600.6 x10_4/ul | Ret [1]: 6.9% | WBC [1]: 66.4 x10_2/uL | KIDNEY_L [1]: 1 g | KIDNEY_R [1]: 1 g | KIDNEY_TOTAL [1]: 2 g | ALP [1]: 1714.2 IU/L | ALT [1]: 50 IU/L | AST [1]: 75 IU/L | BUN [1]: 15 mg/dL | CRE [1]: 0.2 mg/dL | DBIL [1]: 0.018 mg/dL | GLC [1]: 193.6 mg/dL | IP [1]: 7.3 mg/dL | K [1]: 4.5 meq/L | LDH [1]: 94 IU/L | Na [1]: 142.2 meq/L | PL [1]: 147.6 mg/dL | RALB [1]: 2.7 g/dL | TBIL [1]: 0.032 mg/dL | TC [1]: 81.2 mg/dL | TG [1]: 97 mg/dL | TP [1]: 5.9 g/dL | gamma-GTP [1]: 1.2 IU/L | TERMINAL_BW [2]: 252.6 g | TERMINAL_BW [3]: 310 g | TERMINAL_BW [4]: 397.6 g | APTT [2]: 18.3 s | Bas [2]: 0% | Eos [2]: 1% | Fbg [2]: 293.4 mg/dL | Hb [2]: 13.4 g/dL | Ht [2]: 38.2% | Lym [2]: 81.4% | MCH [2]: 21.5 pg | MCHC [2]: 35.1% | MCV [2]: 61.2 fL | Mono [2]: 2.6% | Neu [2]: 14.4% | Plat [2]: 115.8 x10_4/uL | RBC [2]: 624.8 x10_4/ul | Ret [2]: 5.8% | WBC [2]: 90.6 x10_2/uL | APTT [3]: 16.2 s | Bas [3]: 0% | Eos [3]: 1% | Fbg [3]: 310.4 mg/dL | Hb [3]: 14 g/dL | Ht [3]: 40.7% | Lym [3]: 77.2% | MCH [3]: 20.9 pg | MCHC [3]: 34.5% | MCV [3]: 60.6 fL | Mono [3]: 2.4% | Neu [3]: 18.8% | Plat [3]: 101.5 x10_4/uL | RBC [3]: 671.4 x10_4/ul | Ret [3]: 4.6% | WBC [3]: 80.3 x10_2/uL | APTT [4]: 18 s | Bas [4]: 0% | Eos [4]: 1.4% | Fbg [4]: 282 mg/dL | Hb [4]: 14.9 g/dL | Ht [4]: 42% | Lym [4]: 79% | MCH [4]: 19.7 pg | MCHC [4]: 35.4% | MCV [4]: 55.8 fL | Mono [4]: 2.6% | Neu [4]: 16.4% | Plat [4]: 112.2 x10_4/uL | RBC [4]: 754.2 x10_4/ul | Ret [4]: 2.4% | WBC [4]: 93.4 x10_2/uL | KIDNEY_L [2]: 1 g | KIDNEY_R [2]: 1 g | KIDNEY_TOTAL [2]: 2.1 g | KIDNEY_L [3]: 1.2 g | KIDNEY_R [3]: 1.2 g | KIDNEY_TOTAL [3]: 2.4 g | KIDNEY_L [4]: 1.4 g | KIDNEY_R [4]: 1.3 g | KIDNEY_TOTAL [4]: 2.7 g | ALP [2]: 1770.4 IU/L | ALT [2]: 48 IU/L | AST [2]: 72.6 IU/L | BUN [2]: 17.4 mg/dL | CRE [2]: 0.2 mg/dL | DBIL [2]: 0.018 mg/dL | GLC [2]: 191.2 mg/dL | IP [2]: 7.2 mg/dL | K [2]: 4.3 meq/L | LDH [2]: 76.2 IU/L | Na [2]: 142 meq/L | PL [2]: 145.4 mg/dL | RALB [2]: 2.7 g/dL | TBIL [2]: 0.034 mg/dL | TC [2]: 75.8 mg/dL | TG [2]: 106.4 mg/dL | TP [2]: 5.7 g/dL | gamma-GTP [2]: 1.4 IU/L | ALP [3]: 1433.6 IU/L | ALT [3]: 42.8 IU/L | AST [3]: 69 IU/L | BUN [3]: 18.8 mg/dL | CRE [3]: 0.2 mg/dL | DBIL [3]: 0.014 mg/dL | GLC [3]: 191.4 mg/dL | IP [3]: 6.8 mg/dL | K [3]: 4.1 meq/L | LDH [3]: 69.6 IU/L | Na [3]: 142.8 meq/L | PL [3]: 148.6 mg/dL | RALB [3]: 2.7 g/dL | TBIL [3]: 0.026 mg/dL | TC [3]: 71.4 mg/dL | TG [3]: 153.8 mg/dL | TP [3]: 6 g/dL | gamma-GTP [3]: 1 IU/L | ALP [4]: 1369.6 IU/L | ALT [4]: 43.6 IU/L | AST [4]: 67.2 IU/L | CRE [4]: 0.2 mg/dL | DBIL [4]: 0.022 mg/dL | GLC [4]: 185 mg/dL | IP [4]: 6.1 mg/dL | K [4]: 4.1 meq/L | LDH [4]: 81.4 IU/L | Na [4]: 143.6 meq/L | PL [4]: 140.6 mg/dL | RALB [4]: 2.8 g/dL | TBIL [4]: 0.034 mg/dL | TC [4]: 66 mg/dL | TG [4]: 166.4 mg/dL | TP [4]: 6.2 g/dL | gamma-GTP [4]: 1.4 IU/L | TERMINAL_BW [5]: 208.5 g | APTT [5]: 18.1 s | Bas [5]: 0% | Eos [5]: 1.2% | Fbg [5]: 285 mg/dL | Hb [5]: 13.6 g/dL | Ht [5]: 39.2% | Lym [5]: 78% | MCH [5]: 21.3 pg | MCHC [5]: 34.7% | MCV [5]: 61.5 fL | Mono [5]: 3.2% | Neu [5]: 17.2% | Plat [5]: 113.2 x10_4/uL | RBC [5]: 637.4 x10_4/ul | Ret [5]: 6.3% | WBC [5]: 77.5 x10_2/uL | KIDNEY_L [5]: 0.9 g | KIDNEY_R [5]: 0.9 g | KIDNEY_TOTAL [5]: 1.8 g | ALP [5]: 1907.8 IU/L | ALT [5]: 51 IU/L | AST [5]: 75.4 IU/L | BUN [5]: 16.6 mg/dL | CRE [5]: 0.2 mg/dL | DBIL [5]: 0.014 mg/dL | GLC [5]: 196.2 mg/dL | IP [5]: 8.4 mg/dL | K [5]: 4.2 meq/L | LDH [5]: 86 IU/L | Na [5]: 142.6 meq/L | PL [5]: 145.2 mg/dL | RALB [5]: 2.7 g/dL | TBIL [5]: 0.038 mg/dL | TC [5]: 85.4 mg/dL | TG [5]: 58.2 mg/dL | TP [5]: 5.7 g/dL | gamma-GTP [5]: 1.2 IU/L | TERMINAL_BW [6]: 235 g | TERMINAL_BW [7]: 276.3 g | TERMINAL_BW [8]: 344.8 g | APTT [6]: 16.4 s | Bas [6]: 0% | Eos [6]: 1.2% | Fbg [6]: 311.4 mg/dL | Hb [6]: 14 g/dL | Ht [6]: 40.1% | Lym [6]: 75.6% | MCH [6]: 21.1 pg | MCHC [6]: 34.9% | MCV [6]: 60.4 fL | Mono [6]: 2.8% | Neu [6]: 20.2% | Plat [6]: 106.3 x10_4/uL | RBC [6]: 665.6 x10_4/ul | Ret [6]: 5.1% | WBC [6]: 94.7 x10_2/uL | APTT [7]: 17.9 s | Bas [7]: 0% | Eos [7]: 1% | Fbg [7]: 284.2 mg/dL | Hb [7]: 14.7 g/dL | Ht [7]: 42.7% | Lym [7]: 77.6% | MCH [7]: 20.2 pg | MCHC [7]: 34.6% | MCV [7]: 58.4 fL | Mono [7]: 3.2% | Neu [7]: 17.6% | Plat [7]: 101.4 x10_4/uL | RBC [7]: 731 x10_4/ul | Ret [7]: 3.8% | WBC [7]: 106 x10_2/uL | APTT [8]: 20.2 s | Bas [8]: 0% | Eos [8]: 1.2% | Fbg [8]: 290.6 mg/dL | Hb [8]: 16.2 g/dL | Ht [8]: 45.8% | Lym [8]: 78.8% | MCH [8]: 19.9 pg | MCHC [8]: 35.4% | MCV [8]: 56.2 fL | Mono [8]: 1.8% | Neu [8]: 17.8% | Plat [8]: 100.9 x10_4/uL | RBC [8]: 815.6 x10_4/ul | Ret [8]: 2.3% | WBC [8]: 90.5 x10_2/uL | KIDNEY_L [6]: 1 g | KIDNEY_R [6]: 1 g | KIDNEY_TOTAL [6]: 2 g | KIDNEY_L [7]: 1.1 g | KIDNEY_R [7]: 1.1 g | KIDNEY_TOTAL [7]: 2.2 g | KIDNEY_L [8]: 1.3 g | KIDNEY_R [8]: 1.3 g | KIDNEY_TOTAL [8]: 2.6 g | ALP [6]: 1566.6 IU/L | ALT [6]: 44.8 IU/L | AST [6]: 72.4 IU/L | BUN [6]: 17.4 mg/dL | CRE [6]: 0.2 mg/dL | DBIL [6]: 0.018 mg/dL | GLC [6]: 193 mg/dL | IP [6]: 7.9 mg/dL | K [6]: 4.1 meq/L | LDH [6]: 88.8 IU/L | Na [6]: 142 meq/L | PL [6]: 145 mg/dL | RALB [6]: 2.8 g/dL | TBIL [6]: 0.036 mg/dL | TC [6]: 77 mg/dL | TG [6]: 116.8 mg/dL | TP [6]: 6 g/dL | gamma-GTP [6]: 1.8 IU/L | ALP [7]: 1470 IU/L | ALT [7]: 46.2 IU/L | AST [7]: 71.4 IU/L | BUN [7]: 17.8 mg/dL | CRE [7]: 0.2 mg/dL | DBIL [7]: 0.012 mg/dL | GLC [7]: 179.8 mg/dL | IP [7]: 8.1 mg/dL | K [7]: 4.3 meq/L | LDH [7]: 53.8 IU/L | Na [7]: 142.8 meq/L | PL [7]: 141.6 mg/dL | RALB [7]: 2.7 g/dL | TBIL [7]: 0.022 mg/dL | TC [7]: 76 mg/dL | TG [7]: 106.6 mg/dL | TP [7]: 6 g/dL | gamma-GTP [7]: 1.2 IU/L | ALP [8]: 1314.6 IU/L | ALT [8]: 46.8 IU/L | AST [8]: 68.6 IU/L | BUN [8]: 17.2 mg/dL | CRE [8]: 0.2 mg/dL | DBIL [8]: 0.018 mg/dL | GLC [8]: 181 mg/dL | IP [8]: 6.6 mg/dL | K [8]: 4.1 meq/L | LDH [8]: 83.4 IU/L | Na [8]: 144.2 meq/L | PL [8]: 139.6 mg/dL | RALB [8]: 3 g/dL | TBIL [8]: 0.028 mg/dL | TC [8]: 79.2 mg/dL | TG [8]: 74.6 mg/dL | TP [8]: 6.4 g/dL | gamma-GTP [8]: 1 IU/L
